Assay results from patent US20220073475A1, “5-MEMBERED HETEROARYL COMPOUNDS CONTAINING A HYDROXAMATE MOIETY AND THEIR USE” (UNIVERSITE DE LILLE, priority 2019, published 2022).

Experiments:
OPM2 cells = assay: CFZ potency increase, ratio of CC50 of CFZ alone / with compound; assay type: cell-based, human
Procedure, shortened: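 OPM2 cells (12,000/well, 0.2% DMSO) treated with compound plus carfilzomib, with NucView 488 caspase-3/7 substrate (1 μM) and Hoechst 33342, 37 °C; confocal imaging over time gives % apoptotic cells. CFZ CC50 from 4-parameter fits alone and with compound; activity = CC50 alone / CC50 with compound.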

HeLa cells = assay: as above; assay type: cell-based, human; details: compound at 7.5 μM
Text: Human HeLa cells (uterine cervical carcinoma) are maintained in DMEM medium supplemented with GlutaMAX™, 10% fetal bovine serum and 1% penicillin-streptomycin.
(§1) We developed a cell-based, high content assay allowing the rapid detection and quantification of apoptotic cells. Caspase-3/7 activity was detected in real-time using the NucView™ 488 Caspase-3 substrate (Biotium), where the caspase-3/7 substrate peptide sequence DEVD is attached to a nucleic acid dye. The NucView™ 488 reagent crosses the plasma membrane to enter the cytoplasm, where the dye is unable to bind to DNA and remains non-fluorescent. Once the substrate has been cleaved by activated caspase-3/7 in apoptotic cells, the high-affinity DNA dye is released and migrates to the cell nucleus to stain the nucleus with a bright green fluorescence. All cell nuclei were also labeled with Hoechst 33342 (Ozyme).
(§2) For HeLa and MCF7 cells, briefly, cells were seeded in 384-microtiter well plate (1500 HeLa cells or 5000 MCF7 cells in 40 μL full medium per well) and let to attach overnight. Then the compound of the invention and the RE stressor were transferred to the cell culture plate using an Echo555 liquid handler (Labcyte) and 30 μL medium containing NucView™ and Hoechst 33342 were added. Final NucView™ 488 and Hoechst 33342 concentrations were 1 μM and 20 ng/mL, respectively. DMSO content was maintained at 0.2%. The microplates were incubated at 37° C. and 5% CO2 in an automated LiCONiC STR240 UB cell incubator, and images were acquired at various times at 405 nm and 488 nm with the high-resolution automated confocal microscope INCell 6000 (GE). Four fields per well were read with the 20× objective in a confocal mode. The BioCel workstation was managed by VWorks automation control software (Agilent).
(§3) For all cells, Columbus software (Perkin) was used for image quantification and analysis. First, Hoechst 33342 staining was used for an automated detection of nuclei, in which the mean fluorescence intensity for NucView™ 488 was quantified. Inspection of control cells at initial time was used to set a threshold level of NucView™ 488 fluorescence to separate non apoptotic cells from apoptotic cells. Finally, for each well, the result was expressed as percentage of apoptotic cells in the total cell population. CC50 values were calculated from concentration-response curves by a nonlinear regression analysis at four parameters using Excel Fit or GraphPad Prim softwares.
(§4) Activity=(% of apoptotic cells with cytotoxic agent in combination with compound of the invention)/(% of apoptotic cells with cytotoxic agent alone). • Ratio of CC50: The CC50 of the cytotoxic agent was calculated in absence and in presence of a compound of the invention.
(§5) Activity=(CC50 of agent alone)/(CC50 of agent with compound). • Ratio of AUC. Activity=(Area of the dose-concentration curve of cytotoxic agent combined with one concentration of compound)/(Area of the dose-concentration curve of cytotoxic agent alone). (Lehar J. et al, 2008 (molecular systems biology 4:215)).

MCF7 cells = assay: as above; assay type: cell-based, human; details: MCF7, compound at 15 μM
Description: Human epithelial MCF7 cells (mammary gland adenocarcinoma) are maintained in EMEM medium supplemented with GlutaMAX™, 10% fetal bovine serum, 0.01 mg insulin and 1% penicillin-streptomycin.
as §1, §2, §3, §4, §5

[1] = OPM2, compound at 7.5 μM (Table 5)
[2] = OPM2, compound at 7.5 μM (Table 6)

Row | Compound | melting point | Activity: ratio (CC50 of CFZ alone)/(CC50 of CFZ in combination with compound of the invention) (OPM2 cells; [1]) | Activity: ratio (CC50 of CFZ alone)/(CC50 of CFZ in combination with compound of the invention) (OPM2 cells; [2]) | Activity: ratio (CC50 of CFZ alone)/(CC50 of CFZ in combination with compound of the invention) (HeLa cells) | Activity: ratio (CC50 of CFZ alone)/(CC50 of CFZ in combination with compound of the invention) (MCF7 cells)
1 | O=C(C[C@@H](Cc1ccc2ccccc2c1)n1cc(CNC(=O)c2ccccc2)nn1)NO [Compound 1, N-[1-((R)-2-Hydroxycarbamoyl-1-naphthalen-2-ylmethyl-ethyl)-1H-[1,2,3]triazol-4-ylmethyl]-benzamide] | 192.8 to 194 °C | – | – | – | –
2 | COc1ccc(C(=O)NCc2cn([C@@H](CC(=O)NO)Cc3ccc4ccccc4c3)nn2)cc1 [Compound 2] | 178.3 to 179.6 °C | – | – | – | –
3 | O=C(C[C@@H](Cc1ccc2ccccc2c1)n1cc(CNC(=O)c2ccc(C(F)(F)F)cc2)nn1)NO [Compound 4, N-[1-(R-2-Hydroxycarbamoyl-1-naphthalen-2-ylmethyl-ethyl)-1H-[1,2,3]triazol-4-ylmethyl]-4-trifluoromethyl-benzamide] | 198.9 to 200.4 °C | – | – | – | –
4 | Cc1ccc(S(=O)(=O)NCc2cn([C@@H](CC(=O)NO)Cc3ccc4ccccc4c3)nn2)cc1 [Compound 5, (R)—N-Hydroxy-4-naphthalen-2-yl-3-{4-[(toluene-4-sulfonylamino)-methyl]-[1,2,3]triazol-1-yl}-butyramide] | 115.8 to 117.2 °C | – | – | – | –
5 | O=C(C[C@@H](Cc1ccc2ccccc2c1)n1cc(CNS(=O)(=O)c2ccccc2)nn1)NO [Compound 7, (R)-3-[4-(Benzenesulfonylamino-methyl)-[1,2,3]triazol-1-yl]-N-hydroxy-4-naphthalen-2-yl-butyramide] | 137.4 to 138.8 °C | – | – | – | –
6 | O=C(C[C@@H](Cc1ccc2ccccc2c1)n1cc(CNC(=O)CCc2ccccc2)nn1)NO [Compound 10, (R)—N-Hydroxy-4-naphthalen-2-yl-3-{4-[(3-phenyl-propionylamino)-methyl]-[1,2,3]triazol-1-yl}-butyramide] | 150 to 151.4 °C | – | – | – | –
7 | O=C(CC(Cc1ccc2ccccc2c1)c1nc(CNC(=O)c2ccc(F)cc2)no1)NO (centres unmarked) [Compound 27, 4-fluoro-N-[5-(1-hydroxycarbamoylmethyl-2-naphthalen-2-yl-ethyl)-[1,2,4]oxadiazol-3-ylmethyl]-benzamide] | – | 2.4 | 2.4 | 3.0 | 2.8
8 | O=C(C[C@@H](Cc1ccc(-c2ccccc2)cc1)n1cc(CNC(=O)c2ccc(F)cc2)nn1)NO [Compound 32, (R)—N-[1-(1-biphenyl-4-ylmethyl-2-hydroxycarbamoyl-ethyl)-1H-[1,2,3]triazol-4-ylmethyl]-4-fluoro-benzamide] | – | 1.9 | 1.9 | 4.5 | 2.7
9 | O=C(NCc1cn([C@H](Cc2ccc3ccccc3c2)C(=O)NO)nn1)c1ccc(F)cc1 [Compound 43, (R)-4-Fluoro-N-[1-(1-hydroxycarbamoyl-2-naphthalen-2-yl-ethyl)-1H-[1,2,3]triazol-4-ylmethyl]-benzamide] | – | 1.7 | 1.7 | 2.6 | 2.6
10 | O=C(C[C@@H](Cc1ccc2ccccc2c1)n1cc(CNC(=O)c2ccc(F)c(F)c2)nn1)NO [Compound 54, 3,4-difluoro-N-[[1-[(1R)-3-(hydroxyamino)-1-(2-naphthylmethyl)-3-oxo-propyl]triazol-4-yl]methyl]benzamide] | – | 1.8 | 1.8 | 2.3 | 2.2
11 | O=C(C[C@@H](Cc1ccc2ccccc2c1)n1cc(CC(=O)Nc2ccc(F)cc2)nn1)NO [Compound 58, 3-{4-[(4-Fluoro-phenylcarbamoyl)-methyl]-[1,2,3]triazol-1-yl}-N-hydroxy-4-naphthalen-2-yl-butyramide] | – | 1.4 | 1.4 | 2.7 | 2.0
12 | O=C(C[C@@H](Cc1ccc2ccccc2c1)n1cc(CNC(=O)c2ccc(F)c(Cl)c2)nn1)NO [Compound 62, 3-chloro-4-fluoro-N-[[1-[(1R)-3-(hydroxyamino)-1-(2-naphthylmethyl)-3-oxo-propyl]triazol-4-yl]methyl]benzamide] | – | 1.6 | 1.6 | 3.0 | 2.6
13 | O=C(C[C@@H](C/C=C/c1ccccc1)n1cc(CNC(=O)c2ccc(F)c(F)c2)nn1)NO [Compound 75, 3,4-difluoro-N-[[1-[(E,1R)-1-[2-(hydroxyamino)-2-oxo-ethyl]-4-phenyl-but-3-enyl]triazol-4-yl]methyl]benzamide] | – | 1.7 | 1.7 | 4.3 | 2.1
14 | O=C(C[C@@H](Cc1ccc2ccccc2c1)n1cc(CCC(=O)Nc2ccc(F)c(F)c2)nn1)NO [Compound 81, N-(3,4-difluorophenyl)-3-[1-[3-(hydroxyamino)-1-(2-naphthylmethyl)-3-oxo-propyl]triazol-4-yl]propanamide] | – | 2.3 | 2.3 | 3.5 | 2.5
